Values quoted from earlier work as cited in patent publication US20200121704A1, “METHODS FOR TREATING HYPERTENSION AND ARTERIAL STIFFNESS” (THE REGENTS OF THE UNIVERSITY OF COLORADO, A BODY CORPORATE, priority 2017, published 2020).

What was measured:
[1] = tested on: Klotho deficient mice; details: cited from earlier work
[2] = tested on: endothelial cells; details: cited from earlier work
[3] = tested on: ET-1; details: animal models of hypercholesterolemia and cardiac hypertrophy; cited from earlier work
[4] = tested on: old mice; details: supplementation; cited from earlier work

## O=C(Nc1ccccc1-c1cn2c(CN3CCNCC3)csc2n1)c1cnc2ccccc2n1 [SRT1720]
[1]; Klotho deficient mice (a model of accelerated aging)
  Development of hypertension: protects against the development of hypertension
[1]; klotho deficient mice
  Development of arterial stiffness: prevented the development of arterial stiffness

## Oc1ccc(C=Cc2cc(O)cc(O)c2)cc1 [resveratrol]
[2]
  Secretion of ET-1 by endothelial cells: suppressed
[3]
  Circulating ET-1 levels: decreases circulating ET-1 levels

## NC(=O)c1ccc[n+]([C@@H]2O[C@H](COP(=O)([O-])O)[C@@H](O)[C@H]2O)c1 [NMN, nicotinamide mononucleotide]
[4]
  Aortic stiffening: reverses aortic stiffening in old mice to youthful levels
